Test results reported in the NIST ThermoML archive (doi:10.1016/j.tca.2008.03.009).
Numbers after ± are expanded uncertainties.

Assay: molar heat capacity at constant pressure
Conditions: 328.1 K; 101.33 kPa; Crystal; Small sample (50 mg) DSC

molar heat capacity at constant pressure: 111.61 ± 2.3 J/K/mol
Structure (SMILES): [BH4-].[Na+] [sodium tetrahydroborate]
